The text below walks through data of paper PMC8291126, “Functional Characterization of Ecdysis Triggering Hormone Receptors (AgETHR-A and AgETHR-B) in the African Malaria Mosquito, Anopheles gambiae” (Frontiers in Physiology, 2021).

In one assay the test system is AgETHR-A. In words: Calcium mobilization assay (aequorin luminescence) with heterologously expressed AgETHR-A. Conditions: for agonistic activity normalized by the activity of AgETH1 / response of AgETHR-A (in words) / concentration of maximum response (at the level over) / lowest activating concentration (receptor not activated lower than) / response/sensitivity of AgETHR-A to own ETHs (in words): AgETHR-A; for agonistic activity normalized by the activity of AgETH1: CHO cells, normalized to AgETH1; for response of AgETHR-A (in words): 0.1 and 1 μm; for EC50: AgETHR-A in CHO cells, calcium mobilization, luminescence integrated 20 s, at least three replicates; for concentration of maximum response (at the level over) / lowest activating concentration (receptor not activated lower than) / response/sensitivity of AgETHR-A to own ETHs (in words): dose-response. It is filed as cell-based, Anopheles gambiae. An excerpt: (§1) We tested different synthetic insect neuropeptides with PRXamide, including four groups: ETH, pyrokinin1/DH, pyrokinin2/PBAN, and CAPA. The following synthetic peptides were utilized to investigate selectivity and sensitivity of each AgETHR-A and AgETHR-B; AgETH1 (SESPGFIKLSKSVPRIa, NEOBiolab, United States), AgETH2 (GDLENFFLKQSKSVPRIa, GenScript United States Inc.), TcETH1 (ENYVLKAAKNVPRIa), TcETH2 (FFMKASKSVPRIa), TcPK1-1 (PGANSGGMWFGPRLa, GenScript United States Inc.), TcPK1-2 ([…]a), TcCAPA-1([…]a, PepMicCo. Ltd., Suzhou, China), TcCAPA-2 (RIGKMVSFPRIa); MsPBAN (TRTRYFSPRLa), Pyrokinin2-1 (HVVNFTPRLa, Biomatik, United States), DmETH1 (DDSSPGFFLKITKNVPRLa) and DmETH2 (GENFAIKNLKTIPRIa).
(§2) The functional analysis of the AgETH receptors was performed based on the previous description with modifications ([Park et al., 2003]; [Kim et al., 2014]; [Jiang et al., 2016]). The expression vector pcDNA 3.1 (+) (Invitrogen, Carlsbad, CA, United States), including the open reading frame (ORF) for each AgETHR-A and AgETHR-B, was transiently transfected into the CHO cells with a codon-optimized human apoaequorin-containing plasmid ([Vernon and Printen, 2002]) by using TransIT®-2020 (Mirus, Madison, WI, United States). […] The Kozak sequence for the mammalian Kozak consensus sequence ‘GCCACC’ at the 5' ends of each ORF for each AgETHR-A and AgETHR-B was […], allowing for successful functional expression. After approximately 24–28 h, transfected cells were harvested and prepared for the calcium mobilization assay by incubating in assay media DMEM/F12, including coelenterazine h (final concentration 5 μm; AAT Bioquest, Sunnyvale, CA, United States). Different concentrations of synthetic neuropeptides, including AgETH1, AgETH2, and ETH-related neuropeptides (PRXamides), were prepared in a 96-well plate, upon which the transfected cells (~15,000 cells in 50 μl) were applied. The value of luminescence, the indicator or calcium mobilization, was integrated over time for 20 s and normalized to the treatment of either 0.1 or 1 μm of each AgETH1 and AgETH2 positive control response and negative control background values.
On the technique in general: Calcium assays in cells follow changes in intracellular calcium, usually with a dye or a luminescent sensor.

The subject of the next assay is AgETHR-B. In words: Calcium mobilization assay (aequorin luminescence) with heterologously expressed AgETHR-B. It is filed as cell-based, Anopheles gambiae. Conditions: for agonistic activity normalized by the activity of AgETH2 / response of AgETHR-B relative to other ETHs (in words) / concentration of maximum response (at the level over) / lowest activating concentration (receptor not activated lower than) / response/sensitivity of AgETHR-B to own ETHs (in words): AgETHR-B; for agonistic activity normalized by the activity of AgETH2: CHO cells, normalized to AgETH2; for response of AgETHR-B relative to other ETHs (in words): 0.1 μm; for EC50: AgETHR-B in CHO cells, calcium mobilization, luminescence integrated 20 s, at least three replicates; for higher sensitivity of AgETHR-B than AgETHR-A: AgETHR-B vs. AgETHR-A, calcium mobilization assay; for concentration of maximum response (at the level over) / lowest activating concentration (receptor not activated lower than) / response/sensitivity of AgETHR-B to own ETHs (in words): dose-response.
Description: as §1, §2

For the next assay, the system named is TcETHR-B. Particulars: out of 70 peptides, ref Jiang et al., 2015; cited from earlier work.

For the substance “DDSSPGFFLKITKNVPRLa [DmETH1, D. melanogaster ETH]”, the “agonistic activity normalized by the activity of AgETH1” value with AgETHR-A (0.1 μM peptide) came to 138%; with AgETHR-A (1 μM peptide), 102%. For the same substance, in the assay on AgETHR-A, the “response of AgETHR-A (in words)” value is recorded as “responded”. The “agonistic activity normalized by the activity of AgETH2” value in the assay with AgETHR-B (0.1 μM peptide) worked out at 105%; in the assay on AgETHR-B (1 μM peptide), 98%.

For the substance “ENYVLKAAKNVPRIa [TcETH1, T. castaneum ETH]”, the “agonistic activity normalized by the activity of AgETH1” value in the assay with AgETHR-A (0.1 μM peptide) is -11%; in the assay with AgETHR-A (1 μM peptide), 32%. The “response of AgETHR-A (in words)” value in the assay with AgETHR-A is “small or no response”. Besides, the “agonistic activity normalized by the activity of AgETH2” value in the assay with AgETHR-B (0.1 μM peptide) was 81%; in the assay on AgETHR-B (1 μM peptide), 104%. The “response of AgETHR-B relative to other ETHs (in words)” value in the assay on AgETHR-B is recorded as “relatively lower responses”. Also, the “agonist activity (in words)” value in the assay with TcETHR-B is listed as “agonist activity”.

On to “EPKEPKRNKLASVYALTPSLRVa [TcCAPA-1, synthetic insect neuropeptide, CAPA (PepMicCo)]”, for which the entries for the “agonistic activity normalized by the activity of AgETH1” value in the assay with AgETHR-A (0.1 μM peptide) and in the assay on AgETHR-A (1 μM peptide) were -22% and -4%, respectively. Further, the entries for the “agonistic activity normalized by the activity of AgETH2” value with AgETHR-B (0.1 μM peptide) and in the assay on AgETHR-B (1 μM peptide) were 0% and -2%, respectively.

For the substance “FFMKASKSVPRIa [TcETH2, T. castaneum ETH]”, the “agonistic activity normalized by the activity of AgETH1” value in the assay on AgETHR-A (0.1 μM peptide) was 57%; in the assay on AgETHR-A (1 μM peptide), 86%. Moreover, the “response of AgETHR-A (in words)” value with AgETHR-A is “responded”. Further, the results for the “agonistic activity normalized by the activity of AgETH2” value in the assay on AgETHR-B (0.1 μM peptide) and in the assay on AgETHR-B (1 μM peptide) were 109% and 107%, respectively. For the same substance, the “agonist activity (in words)” value in the assay with TcETHR-B is “agonist activity”.

On to “GDLENFFLKQSKSVPRIa [AgETH2, Anopheles gambiae ecdysis triggering hormone 2, synthetic (GenScript)]”, for which, in the assay on AgETHR-A, the half-maximal effective concentration (EC50) came out at 0.703 µM, the “concentration of maximum response (at the level over)” value (shortened to “concentration … (at the level over)”) was “over 100 um”, the “lowest activating concentration (receptor not activated lower than)” value is reported as not below 10 nm and the “response/sensitivity of AgETHR-A to own ETHs (in words)” value is given as “dose-dependent responses”. Moreover, in the assay on AgETHR-A (0.1 μM peptide), the “agonistic activity normalized by the activity of AgETH1” value worked out at 24%. Moreover, the “agonistic activity normalized by the activity of AgETH1” value with AgETHR-A (1 μM peptide) amounted to 69%. In addition, in the assay with AgETHR-A (listed as AgETH-2), the “response/sensitivity of AgETHR-A to own ETHs (in words)” value is listed as “sensitive”. In addition, in the assay with AgETHR-B, the concentration giving a half-maximal response (EC50) is 0.0022 µM, the “higher sensitivity of AgETHR-B than AgETHR-A” value came out at 320 times, the “concentration … (at the level over)” value is listed as “over 100 nm” and the “lowest activating concentration (receptor not activated lower than)” value was not below 0.03 nm. The “response/sensitivity of AgETHR-B to own ETHs (in words)” value (“response/sensitivity of AgETHR-B” for short) in the assay with AgETHR-B is given as “dose-dependent responses”. Besides, the “agonistic activity normalized by the activity of AgETH2” value with AgETHR-B (0.1 μM peptide) was 100%. Also, the “agonistic activity normalized by the activity of AgETH2” value in the assay on AgETHR-B (1 μM peptide) turned out to be 100%. In addition, in the assay on AgETHR-B (listed as AgETH-2), the “response/sensitivity of AgETHR-B” value is “sensitive”.

On to “GENFAIKNLKTIPRIa [DmETH2, D. melanogaster ETH]”, for which the figures for the “agonistic activity normalized by the activity of AgETH1” value with AgETHR-A (0.1 μM peptide) and with AgETHR-A (1 μM peptide) were -14% and 2%, respectively. Also, the “response of AgETHR-A (in words)” value in the assay on AgETHR-A is “small or no response”. Moreover, the results for the “agonistic activity normalized by the activity of AgETH2” value in the assay on AgETHR-B (0.1 μM peptide) and in the assay on AgETHR-B (1 μM peptide) were 83% and 102%, respectively. Also, the “response of AgETHR-B relative to other ETHs (in words)” value with AgETHR-B is “relatively lower responses”.

As for “HVVNFTPRLa [Pyrokinin2-1, synthetic insect neuropeptide with PRXamide (Biomatik)]”, the “agonistic activity normalized by the activity of AgETH1” value is reported as -21% in the assay on AgETHR-A (0.1 μM peptide) and -4% in the assay on AgETHR-A (1 μM peptide). For the same substance, the “agonistic activity normalized by the activity of AgETH2” value in the assay on AgETHR-B (0.1 μM peptide) is given as 1%; with AgETHR-B (1 μM peptide), -1%.

Turning to “PGANSGGMWFGPRLa [TcPK-1-1, synthetic insect neuropeptide with PRXamide (GenScript)]”, the “agonistic activity normalized by the activity of AgETH1” value is -18% with AgETHR-A (0.1 μM peptide) and -2% with AgETHR-A (1 μM peptide). Moreover, the “agonistic activity normalized by the activity of AgETH2” value in the assay with AgETHR-B (0.1 μM peptide) was 1%; in the assay with AgETHR-B (1 μM peptide), -3%.

On to “RIGKMVSFPRIa [TcCAPA-2, synthetic insect neuropeptide, CAPA]”, for which the “agonistic activity normalized by the activity of AgETH1” value is -24% with AgETHR-A (0.1 μM peptide) and -4% in the assay with AgETHR-A (1 μM peptide). The “agonistic activity normalized by the activity of AgETH2” value is on record as 0% with AgETHR-B (0.1 μM peptide) and 2% in the assay on AgETHR-B (1 μM peptide).

Consider “SESPGFIKLSKSVPRIa [AgETH1, Anopheles gambiae ecdysis triggering hormone 1, synthetic (NEOBiolab)]”, for which the EC50 in the assay on AgETHR-A turned out to be 0.127 µM; in the assay on AgETHR-B it was 0.0045 µM. Besides, the “agonistic activity normalized by the activity of AgETH1” value in the assay on AgETHR-A (0.1 μM peptide) and in the assay on AgETHR-A (1 μM peptide) was 100% each time. Also, the “concentration … (at the level over)” value is given as “over 10 um” in the assay on AgETHR-A and “over 100 nm” in the assay with AgETHR-B. In addition, the figures for the “lowest activating concentration (receptor not activated lower than)” value in the assay with AgETHR-A and in the assay with AgETHR-B were not below 3 nm and not below 0.1 nm, respectively. Also, the “response/sensitivity of AgETHR-A to own ETHs (in words)” value with AgETHR-A was “dose-dependent responses”; in the assay on AgETHR-A (listed as AgETH-1) it was “sensitive”. For the same substance, in the assay on AgETHR-B, the “higher sensitivity of AgETHR-B than AgETHR-A” value stood at 28 times. Also, the “agonistic activity normalized by the activity of AgETH2” value in the assay with AgETHR-B (0.1 μM peptide) turned out to be 97%; with AgETHR-B (1 μM peptide), 98%. The “response/sensitivity of AgETHR-B” value with AgETHR-B was “dose-dependent responses”; in the assay with AgETHR-B (listed as AgETH-1), “sensitive”.

With “TPHESSVPNERNDDSKETYFWFGPRLa [TcPK-1-2, synthetic insect neuropeptide with PRXamide]”, the “agonistic activity normalized by the activity of AgETH1” value is recorded as -13% in the assay on AgETHR-A (0.1 μM peptide) and -3% in the assay on AgETHR-A (1 μM peptide). Further, the entries for the “agonistic activity normalized by the activity of AgETH2” value with AgETHR-B (0.1 μM peptide) and in the assay on AgETHR-B (1 μM peptide) were 1% and -2%, respectively.

Regarding “TRTRYFSPRLa [MsPBAN, synthetic insect neuropeptide with PRXamide]”, the “agonistic activity normalized by the activity of AgETH1” value with AgETHR-A (0.1 μM peptide) is on record as -21%; in the assay on AgETHR-A (1 μM peptide) it was -3%. Moreover, the “agonistic activity normalized by the activity of AgETH2” value in the assay on AgETHR-B (0.1 μM peptide) is listed as 0%; with AgETHR-B (1 μM peptide) it was -2%.

Usually EC50 stands for the midpoint of the concentration-response curve.
